# How the values were obtained:
# Format in all cases: cell-based
# [1] = test system: IFNγ induced ICAM-1 (CD54) up-regulation in U937 human monocytic cells (JAK/Stat pathway); assay: U937 IFNγ ICAM1 FACS Assay; details: Table III Example 6; 10 ng/mL IFNγ, 18-24 hours
# In short: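 U937 cells (100,000 per well) were pre-incubated 30 min at 37 °C with serially 3-fold diluted compound, then stimulated with IFNγ for 18–24 h. Surface ICAM-1 was measured by flow cytometry as the geometric mean of ICAM-APC on gated live cells. EC50 values were calculated from dose curves, with % live cells also recorded.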
# [2] = test system: primary human T-cells (IL-2 induced proliferation, JAK-1/JAK-3, Stat-5); assay: Primary Human T-Cell Proliferation Assay Stimulated with IL-2 (CellTiter-Glo); details: Table III Example 4
# In short: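 Pre-activated peripheral-blood T-cells (TCR/CD28 stimulated, IL-2-maintained) were IL-2-depleted, then plated in Yssel's medium with 80 U/mL IL-2 in the cell suspension and compound in duplicate. Proliferation ran 72 h at 37 °C; viable cells quantified by CellTiter-Glo ATP luminescence, with IL-2-omitted wells as unstimulated control.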
# [3] = test system: IL-4 stimulated CD23 upregulation in human Ramos B cells (JAK-1/JAK-3, Stat-6); assay: Assay for Ramos B-Cell Line Stimulated with IL-4 (CD23 upregulation, FACS); details: Table III Example 3
# In short: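 Log-phase Ramos B cells (5×10^4 per point, RPMI with 5% serum) pre-incubated with compound or DMSO 1 h at 37° C, then stimulated with IL-4 at 50 units/mL final for 20-24 h. CD23 upregulation measured by staining and flow cytometry.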
SMILES,IC50 [1],IC50 [2],IC50 [3]
"NS(=O)(=O)c1cccc(Nc2ncc(F)c(Nc3ccc(CNS(=O)(=O)C4CCCCC4)cc3)n2)c1 [Compound I-72, N2-(3-aminosulfonyl)phenyl-N4-(4-cyclohexylsulfonylaminomethyl)phenyl-5-fluoro-2,4-pyrimidinediamine]",0.204 µM,0.0251 µM,0.0569 µM
"Cc1ccc(Nc2ncc(F)c(Nc3ccc(CNS(=O)(=O)C4CCCCC4)cc3)n2)cc1S(N)(=O)=O [Compound I-73, N2-(3-aminosulfonyl-4-methyl)phenyl-N4-(4-cyclohexylsulfonylaminomethyl)phenyl-5-fluoro-2,4-pyrimidinediamine]",0.311 µM,0.071 µM,0.0899 µM
"CCCN(Cc1ccc(Nc2nc(Nc3cccc(S(N)(=O)=O)c3)ncc2C)cc1)S(=O)(=O)C1CC1 [Compound I-80, N2-(3-aminosulfonyl)phenyl-N4-[4-(N-cyclopropylsulfonyl-N-propylamino)methyl]phenyl-5-methyl-2,4-pyrimidinediamine]",0.143 µM,0.0463 µM,0.0371 µM
"Cc1cnc(Nc2cc(S(N)(=O)=O)cc(S(N)(=O)=O)c2)nc1Nc1ccc(CNS(=O)(=O)C2CC2)cc1 [Compound I-84, N4-(4-cyclopropylsulfonylaminomethyl)phenyl-N2-(3,5-diaminosulfonyl)phenyl-5-methyl-2,4-pyrimidinediamine]",0.928 µM,0.237 µM,0.355 µM
"Cc1cnc(Nc2cccc(S(N)(=O)=O)c2)nc1Nc1ccc(CNS(=O)(=O)CC(F)(F)F)cc1 [Compound I-97, N2-(3-aminosulfonyl)phenyl-5-methyl-N4-(4-trifluoroethylsulfonylaminomethyl)phenyl-2,4-pyrimidinediamine]",0.257 µM,0.0488 µM,0.0347 µM
"Cc1ccc(Nc2ncc(Cl)c(Nc3ccc(CNS(=O)(=O)C4CC4)cc3)n2)cc1S(N)(=O)=O [Compound I-113, N2-(3-aminosulfonyl-4-methyl)phenyl-5-chloro-N4-(4-cyclopropylsulfonylaminomethyl)phenyl-2,4-pyrimidinediamine]",0.0471 µM,0.017 µM,0.0186 µM
"NS(=O)(=O)c1cccc(Nc2ncc(Cl)c(Nc3ccc(CNS(=O)(=O)C4CC4)cc3)n2)c1 [Compound I-114, N2-(3-aminosulfonyl)phenyl-5-chloro-N4-(4-cyclopropylsulfonylaminomethyl)phenyl-2,4-pyrimidinediamine]",0.0517 µM,0.0092 µM,0.0206 µM
"NS(=O)(=O)c1ccc(Nc2ncc(Cl)c(Nc3ccc(CNS(=O)(=O)C4CC4)cc3)n2)cc1 [Compound I-115, N2-(4-aminosulfonyl)phenyl-5-chloro-N4-(4-cyclopropylsulfonylaminomethyl)phenyl-2,4-pyrimidinediamine]",0.105 µM,0.0192 µM,0.0233 µM
"CCC(=O)N(Cc1cccc(Nc2nc(Nc3cccc(S(N)(=O)=O)c3)ncc2C)c1)S(=O)(=O)C1CC1 [Compound I-116, N2-(3-aminosulfonyl)phenyl-N4-[3-(N-cyclopropylsulfonyl-N-propionyl)aminomethyl]phenyl-5-methyl-2,4-pyrimidinediamine]",0.178 µM,0.0299 µM,0.0367 µM
"Cc1ccc(Nc2ncc(C)c(Nc3ccc(CNS(=O)(=O)C(C)C)cc3)n2)cc1S(N)(=O)=O [Compound I-117, N2-(3-aminosulfonyl-4-methyl)phenyl-N4-(4-isopropylsulfonylaminomethyl)phenyl-5-methyl-2,4-pyrimidinediamine]",0.0601 µM,0.0179 µM,0.0388 µM
"Cc1cnc(Nc2cccc(S(N)(=O)=O)c2)nc1Nc1ccc(CNS(=O)(=O)C(C)C)cc1 [Compound I-118, N2-(3-aminosulfonyl)phenyl-N4-(4-isopropylsulfonylaminomethyl)phenyl-5-methyl-2,4-pyrimidinediamine]",0.218 µM,0.0158 µM,0.0398 µM
"Cc1cnc(Nc2cccc(S(N)(=O)=O)c2)nc1Nc1ccc(CNS(=O)(=O)C2CC2)c(Cl)c1 [Compound I-119, N2-(3-aminosulfonyl)phenyl-N4-(3-chloro-4-cyclopropylsulfonylaminomethyl)phenyl-5-methyl-2,4-pyrimidinediamine]",0.535 µM,0.0954 µM,0.0535 µM
"Cc1cnc(Nc2cccc(S(N)(=O)=O)c2)nc1Nc1cccc(CN(C)S(=O)(=O)C2CC2)c1 [Compound I-120, N2-(3-aminosulfonyl)phenyl-N4-[3-(N-cyclopropylsulfonyl-N-methyl)aminomethyl]phenyl-5-methyl-2,4-pyrimidinediamine]",0.0984 µM,0.0473 µM,0.0671 µM
"Cc1cnc(Nc2cccc(S(N)(=O)=O)c2)nc1Nc1ccc(CN(C)S(=O)(=O)C2CC2)cc1 [Compound I-121, N2-(3-aminosulfonyl)phenyl-N4-[4-(N-cyclopropylsulfonyl-N-methyl)aminomethyl]phenyl-5-methyl-2,4-pyrimidinediamine]",0.231 µM,0.0465 µM,0.0736 µM
"Cc1cnc(Nc2ccc(S(N)(=O)=O)cc2)nc1Nc1ccc(CNS(=O)(=O)C(C)C)cc1 [Compound I-123, N2-(4-aminosulfonyl)phenyl-N4-(4-isopropylsulfonylaminomethyl)phenyl-5-methyl-2,4-pyrimidinediamine]",0.164 µM,0.0429 µM,0.0836 µM
"Cc1cnc(Nc2ccc(S(N)(=O)=O)cc2)nc1Nc1cccc(CN(C)S(=O)(=O)C2CC2)c1 [Compound I-124, N2-(4-aminosulfonyl)phenyl-N4-[3-(N-cyclopropylsulfonyl-N-methyl)aminomethyl]phenyl-5-methyl-2,4-pyrimidinediamine]",0.373 µM,0.132 µM,0.0898 µM
"Cc1ccc(Nc2ncc(C)c(Nc3ccc(CNS(=O)(=O)C4CC4)c(Cl)c3)n2)cc1S(N)(=O)=O [Compound I-125, N2-(3-aminosulfonyl-4-methyl)phenyl-N4-(3-chloro-4-cyclopropylsulfonylaminomethyl)phenyl-5-methyl-2,4-pyrimidinediamine]",0.389 µM,0.138 µM,0.0949 µM
"Cc1ccc(Nc2ncc(C)c(Nc3ccc(CN(C)S(=O)(=O)C4CC4)cc3)n2)cc1S(N)(=O)=O [Compound I-126, N2-(3-aminosulfonyl-4-methyl)phenyl-N4-[4-(N-cyclopropylsulfonyl-N-methyl)aminomethyl]phenyl-5-methyl-2,4-pyrimidinediamine]",0.224 µM,0.0742 µM,0.104 µM
"Cc1cnc(Nc2cccc(S(=O)(=O)NCc3ccccc3)c2)nc1Nc1ccc(CNS(=O)(=O)C2CC2)cc1 [Compound I-154, N2-(3-benzylaminosulfonyl)phenyl-N4-(4-cyclopropylsulfonylaminomethyl)phenyl-5-methyl-2,4-pyrimidinediamine]",0.184 µM,0.0619 µM,0.0846 µM
"CNS(=O)(=O)c1cccc(Nc2ncc(C)c(Nc3ccc(CNS(=O)(=O)C4CC4)cc3)n2)c1 [Compound I-161, N4-(4-cyclopropylsulfonylaminomethyl)phenyl-5-methyl-N2-(3-methylaminosulfonyl)phenyl-2,4-pyrimidinediamine]",0.051 µM,0.0112 µM,0.0167 µM
"CNS(=O)(=O)c1cccc(Nc2ncc(C)c(Nc3cccc(CNS(=O)(=O)C4CC4)c3)n2)c1 [Compound I-162, N4-(3-cyclopropylsulfonylaminomethyl)phenyl-5-methyl-N2-(3-methylaminosulfonyl)phenyl-2,4-pyrimidinediamine]",0.155 µM,0.0463 µM,0.0579 µM
"C#CCNS(=O)(=O)c1ccc(Nc2ncc(C)c(Nc3ccc(CNS(=O)(=O)C4CC4)cc3)n2)cc1 [Compound I-164, N4-(4-cyclopropylsulfonylaminomethyl)phenyl-5-methyl-N2-(4-propargylaminosulfonyl)phenyl-2,4-pyrimidinediamine]",0.16 µM,0.0328 µM,0.0613 µM
"C#CCNS(=O)(=O)c1cccc(Nc2ncc(C)c(Nc3ccc(CNS(=O)(=O)C4CC4)cc3)n2)c1 [Compound I-165, N4-(4-cyclopropylsulfonylaminomethyl)phenyl-5-methyl-N2-(3-propargylaminosulfonyl)phenyl-2,4-pyrimidinediamine]",0.15 µM,0.0199 µM,0.0348 µM
"Cc1cnc(Nc2cccc(S(=O)(=O)NC(C)C)c2)nc1Nc1ccc(CNS(=O)(=O)C2CC2)cc1 [Compound I-173, N4-(4-cyclopropylsulfonylaminomethyl)phenyl-N2-(3-isopropylaminosulfonyl)phenyl-5-methyl-2,4-pyrimidinediamine]",0.109 µM,0.0424 µM,0.0348 µM
"CCNS(=O)(=O)c1ccc(Nc2ncc(C)c(Nc3ccc(CNS(=O)(=O)C4CC4)cc3)n2)cc1 [Compound I-175, N4-(4-cyclopropylsulfonylaminomethyl)phenyl-N2-(4-ethylaminosulfonyl)phenyl-5-methyl-2,4-pyrimidinediamine]",0.0723 µM,0.102 µM,0.0461 µM
